Data: patent publication US11918691B2, “Local delivery of antineoplastic particles in combination with systemic delivery of immunotherapeutic agents for the treatment of cancer” (CRITITECH, INC., priority 2017, dated 2024)

Experiments:
[1] = tested on: UM-UC-3 bladder cancer cell line (ATCC-CRL-1749) tumors; assay: Human bladder cancer (UM-UC-3) mouse xenograft study: tumor volume, body weight, histology; type: in vivo, Hsd:Athymic Nude-Foxn1nu nude mice
Method: Tumor volume was determined with calipers. […] Animals were weighed 2×/week.
At day 18 after tumor implant, when average tumor size was between 50-325 mm^3, animals were sorted into five groups with equal average tumor sizes and were treated as shown in Table 25 below.
For IT administration (Vehicle/NANODOCE®), injections (using 27 G, ½″ needle) were administered at three sites within the tumor (total calculated injection volume based on 40 mg/mL NANODOCE® stock and 25 g mouse=63 μL; split evenly across the three injection sites) to maximize distribution of the test formulation throughout the tumor. The second treatments (2nd cycle) occurred 7 days following first treatment (1st cycle) and third treatments (3rd cycle) occurred 14 days following the first treatment. The docetaxel solution IV was administered via the tail vein.
The test formulations were prepared as follows: • Vehicle (Control): Diluted 1 ml of the 1% Polysorbate 80/8% Ethanol in normal saline (0.9% Sodium Chloride for Injection) reconstitution solution with 1.5 mL of normal saline (0.9% Sodium Chloride for Injection, USP). The final concentration of polysorbate 80 was 0.4% and the final concentration of ethanol was 3.2% in the Vehicle. • NANODOCE® Suspension: Added 1 ml of the 1% Polysorbate 80/8% Ethanol in normal saline (0.9% Sodium Chloride for Injection) reconstitution solution into the vial of NANODOCE® particles powder (100 mg/60 cc vial). The mean particle size (number) of the NANODOCE® particles powder was 1.0 micron. Vigorously hand shook the vial with inversions for 1 minute. […] Vortexed to mix.

[2] = tested on: human renal cell adenocarcinoma (786-0 cell line); assay: Rat xenograft model of human renal cell adenocarcinoma: tumor volume, body weight, observations; type: in vivo, Sprague-Dawley Rag2; Il2rg null (SRG) rat; conditions: IV, 3 weekly cycles
[3] = Rat xenograft model of human renal cell adenocarcinoma: docetaxel concentration in tumor tissue, LC-MS/MS; type: in vivo, Sprague-Dawley Rag2; Il2rg null (SRG) rat; conditions: 38 days following the last of three weekly cycles IV (5-[…]); LOQ 1.00 ng/g
Method: A calibration curve, prepared in rat control tumor tissue homogenate, was analyzed at the beginning and the end of each analytical run. Two sets of quality control (QC) samples were prepared at four concentration levels (low, mid-1, mid-2 and high) and were used to ensure reliability of the assay.

[4] = tested on: human renal cell adenocarcinoma (786-0 cell line); assay: Rat xenograft model of human renal cell adenocarcinoma: histology and immunohistochemistry of residual tumors; type: in vivo, Sprague-Dawley Rag2; Il2rg null (SRG) rat
Method: Microscopic Examination: Tissues fixed with 10% NBF were embedded in paraffin. Each tumor was cut into 2-3 pieces and embedded and sectioned together.
The lymphohistiocytic infiltrate density based on assessment of […] and immunohistochemical staining with CD11b, graded semi quantitatively is shown in Table 31.
A review was conducted on the morphologic and immunohistochemical features of a subset of 14 female rats from the renal cell carcinoma study aimed to assess the efficacy of intratumoral NanoDoce® (the total study contained 30 animals). […] The NanoDoce® group was separated into three groups based on the number of administered cycles: group 1 (1 cycle; 3 animals), group 2 (2 cycles; 3 animals), and group 3 (3 cycles; 2 animals).

Row | animals evaluated with a detectable docetaxel level in tumor tissue [3] | docetaxel level in tumor tissue [3] | SMILES | histology general observations (H&E) ([1]; Docetaxel Solution IV 3 cycles) | initial animal weight loss compared with NanoDoce IT 1, 2 and 3 cycles ([1]; IV 3 cycles) | signs of peripheral neuropathy compared with NanoDoce IT 3 cycles ([1]; IV 3 cycles) | treatment effect relative to initial tumor size ([1]; IV 3 cycles) | tumor volumes over time ([1]; IV 3 cycles (weekly), 61 days) | tumor growth compared to vehicle control [2] | histology (H&E) compared with vehicle control ([4]; IV 3 cycles, female rat) | Number of animals with residual viable tumor >10 mm (maximum cross-sectional dimension of viable carcinoma on slide) ([4]; IV docetaxel QWX3, 2 animals evaluated) | residual viable carcinoma nodule, maximum dimension on the slide ([4]; both IV docetaxel animals) | morphologic and immunohistochemical appearance ([4]; two IV docetaxel cases (3 cycles)) | Number of animals with <5% of tissue showing necrosis ([4]; IV docetaxel, 2 animals) | Number of animals with Mild lymphohistiocytic infiltrate density (H&E and CD11b IHC, semi quantitative) ([4]; IV docetaxel, 2 animals)
1 | one of four | 21.8 ng/g | CC(=O)OC12CO[C@@H]1C[C@H](O)[C@@]1(C)C(=O)[C@H](O)C3=C(C)[C@@H](OC(=O)[C@H](O)[C@@H](NC(=O)OC(C)(C)C)c4ccccc4)C[C@@](O)([C@@H](OC(=O)c4ccccc4)[C@H]21)C3(C)C (some centres unmarked) [Docetaxel, docetaxel] | many viable appearing tumor masses with some macrophage and occasional lymphocytic response along with some tumor necrosis | generally greater | greater signs of peripheral neuropathy | somewhat effective at treating small tumors, but not very effective in treating large tumors | decreased initially for dosages of NanoDoce® IT 1 cycle and Docetaxel IV 3 cycles, but subsequently increased | partial tumor growth inhibition | no difference | 2 | greater than 10 mm | identical morphologic and immunohistochemical appearance to that seen in the control and IT vehicle groups |  | 
2 |  |  | CC(=O)O[C@@]12CO[C@@H]1C[C@H](O)[C@@]1(C)C(=O)[C@H](O)C3=C(C)[C@@H](OC(=O)[C@H](O)[C@@H](NC(=O)OC(C)(C)C)c4ccccc4)C[C@@](O)([C@@H](OC(=O)c4ccccc4)[C@H]21)C3(C)C [Doce] |  |  |  |  |  |  |  |  |  |  | 2 | 2
